Laboratory results from patent publication US9060541B2, “Sterilizer for foods” (Kawakami Co., Ltd., priority 2009, dated 2015).
Like-named read-outs stand apart in the source and are kept apart here.

Experiments:
Assay type in all cases: cell-based
Design in all cases: key: D: There is no sterilization effect.; C: There is a sterilization effect in step (1) but no sterilization effect in step (2).; B: There is a sterilization effect up to step (2) but no sterilization effect in step (3).; A: There is a sterilization effect up to step (3)
[1] = test system: Vibrio parahaemolyticus AQ3815; experiment: Comparison test of sterilization effects against various food poisoning microbes
[2] = test system: Vibrio cholerae O1 NIH 41
Vibrio mimicus KX-M5 = experiment: Comparison test of sterilization effects against various food poisoning microbes
Vibrio fluvialis KX-F24 = experiment: as above
[3] = test system: Salmonella serotype Agona KX-S143; experiment: as above
[4] = test system: Salmonella serotype Anatum KX-S152; experiment: as above
[5] = test system: Salmonella serotype Krefeld KX-S124; experiment: as above
[6] = test system: Plesiomonas shigelloides KX-P1945; experiment: as above
[7] = test system: Shigella boydii serotype 4 KX-H288; experiment: as above
[8] = test system: Enteroinvasive Escherichia coli O28ac KX-E63; experiment: as above
[9] = test system: Enteroaggregative Escherichia coli O111:H21 K-H-6; experiment: as above
Bacillus cereus Kyoto 1 = experiment: as above
[10] = test system: Lactobacillus plantarum RIMD 1202001; experiment: as above
[11] = test system: Clostridium perfringens NCTC8237
[12] = test system: Campylobacter jejuni subsp. Jejuni JCM2013; experiment: Comparison test of sterilization effects against various food poisoning microbes
[13] = Table 7, test microbe solution without yeast extract
[14] = Table 8, yeast extract 4 weight % blended in test microbe solution

| Structure (SMILES) | Sterilization effect [1, 13] | Sterilization effect [1, 14] | Sterilization effect [2, 13] | Sterilization effect [2, 14] | Sterilization effect (Vibrio mimicus KX-M5; [13]) | Sterilization effect (Vibrio mimicus KX-M5; [14]) | Sterilization effect (Vibrio fluvialis KX-F24; [13]) | Sterilization effect (Vibrio fluvialis KX-F24; [14]) | Sterilization effect [3, 13] | Sterilization effect [3, 14] | Sterilization effect [4, 13] | Sterilization effect [4, 14] | Sterilization effect [5, 13] | Sterilization effect [5, 14] | Sterilization effect [6, 13] | Sterilization effect [6, 14] | Sterilization effect [7, 13] | Sterilization effect [7, 14] | Sterilization effect [8, 13] | Sterilization effect [8, 14] | other results |
| --- | --- | --- | --- | --- | --- | --- | --- | --- | --- | --- | --- | --- | --- | --- | --- | --- | --- | --- | --- | --- | --- |
| CCO [EtOH 30%, ethanol] | B | C | B | C | C | C | C | C | C | C | C | C | C | C | B | B | D | D | C | C | Sterilization effect [9, 13]: D; Sterilization effect [9, 14]: D; Sterilization effect (Bacillus cereus Kyoto 1; [13]): C; Sterilization effect (Bacillus cereus Kyoto 1; [14]): D; Sterilization effect [10, 13]: C; Sterilization effect [10, 14]: D; Sterilization effect [11, 13]: D; Sterilization effect [11, 14]: D; Sterilization effect [12, 13]: B; Sterilization effect [12, 14]: B |
| [Na+].[O-]Cl [S.H 150 ppm, sodium hypochlorite] | A | C | A | D | A | D | A | D | A | D | A | D | A | D | A | C | A | D | A | D | Sterilization effect [9, 13]: A; Sterilization effect [9, 14]: D; Sterilization effect (Bacillus cereus Kyoto 1; [13]): A; Sterilization effect (Bacillus cereus Kyoto 1; [14]): D; Sterilization effect [10, 13]: A; Sterilization effect [10, 14]: D; Sterilization effect [11, 13]: A; Sterilization effect [11, 14]: D; Sterilization effect [12, 13]: A; Sterilization effect [12, 14]: C |
